From US20250312462A1, “PAK1 DEGRADERS AND METHODS OF USE THEREOF” (INSTITUTE FOR CANCER RESEARCH D/B/A THE RESEARCH INSTITUTE …, priority 2022, published 2025)

Tests used:
NDR2 = NDR2 (Homo sapiens, UniProt Q9Y2H1); test: KINOMEscan; details: read-out: Percent Control
Procedure: (§1) The kinase engagement assay (KINOMEscan®) was performed by DiscoverX assessing binding abilities toward a set of kinases.

KIT(V559D, T670I) = KIT(V559D, T670I) (Homo sapiens, UniProt P10721, T670I/V559D); test: KINOMEscan; details: read-out: Percent Control
Procedure: as §1

MRCKB = MRCKB (Homo sapiens, UniProt Q9Y5S2); test: KINOMEscan; details: read-out: Percent Control
Procedure: as §1

TGFBR1 = TGFBR1 (Homo sapiens, UniProt P36897); test: KINOMEscan; details: read-out: Percent Control
Procedure: as §1

[1] = molecular target: ABL1(T315I)-phosphorylated (Homo sapiens, UniProt P00519, T315I); test: KINOMEscan; details: read-out: Percent Control
Procedure: as §1

INSR = INSR (Homo sapiens, UniProt P06213); test: KINOMEscan; details: read-out: Percent Control
Procedure: as §1

FAK = FAK (Homo sapiens, UniProt Q05397); test: KINOMEscan; details: read-out: Percent Control
Procedure: as §1

PAK1 [2] = molecular target: T1, PAK1 (Homo sapiens, UniProt Q13153); test: PAK1 degradation in MCF7 and OVCAR3 cells, immunoblot; assay type: cell-based; design: endogenous in cells; host or cells: MCF7, OVCAR3
Procedure: Protein lysates were harvested at the times specified.
Cell lysates were obtained by centrifugation at 13,500 rpm for 15 minutes at 4° C. BCA protein assay (Thermo Scientific) was used to determine protein concentration then equal amounts of total proteins were separated by SDS-PAGE (Bio-Rad) and transferred to PVDF membrane (Thermo Scientific) at 100V for 2 hours. Membranes were blocked in 5% (w/v) non-fat dry milk in tris-buffered saline with 0.1% Tween-20 (TBS-T) for 1 hour and incubated with primary antibody at 4° C. for overnight. Membranes were washed with TBS-T on the next day and incubated with HRP-conjugated secondary antibodies (Millipore) at room temperature for 1 hour and exposed to films after washing.
Target sequence in this assay (Q13153 whole entry): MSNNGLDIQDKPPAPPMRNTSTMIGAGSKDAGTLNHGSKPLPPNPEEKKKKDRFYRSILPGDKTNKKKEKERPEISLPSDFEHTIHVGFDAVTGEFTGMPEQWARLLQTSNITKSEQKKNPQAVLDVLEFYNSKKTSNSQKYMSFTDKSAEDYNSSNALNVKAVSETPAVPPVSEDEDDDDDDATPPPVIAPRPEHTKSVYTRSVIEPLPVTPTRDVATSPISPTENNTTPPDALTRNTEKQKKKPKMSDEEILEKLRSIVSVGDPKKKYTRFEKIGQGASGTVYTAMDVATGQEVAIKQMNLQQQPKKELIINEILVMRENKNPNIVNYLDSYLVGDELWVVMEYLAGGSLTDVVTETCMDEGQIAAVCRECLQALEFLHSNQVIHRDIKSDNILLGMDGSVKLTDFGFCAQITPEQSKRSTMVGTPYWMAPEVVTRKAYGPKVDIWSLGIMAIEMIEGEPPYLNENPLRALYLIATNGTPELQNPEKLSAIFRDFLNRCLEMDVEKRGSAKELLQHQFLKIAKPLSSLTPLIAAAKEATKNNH

CLK4 = CLK4 (Homo sapiens, UniProt Q9HAZ1); test: KINOMEscan; details: read-out: Percent Control
Procedure: as §1

CDK4-cyclinD3 = CDK4-cyclinD3 (Homo sapiens, UniProt P11802); test: KINOMEscan; details: read-out: Percent Control
Procedure: as §1

ALK(L1196M) = ALK(L1196M) (Homo sapiens, UniProt Q9UM73, L1196M); test: KINOMEscan; details: read-out: Percent Control
Procedure: as §1

LYN = LYN (Homo sapiens, UniProt P07948); test: KINOMEscan; details: read-out: Percent Control
Procedure: as §1

IRAK1 = IRAK1 (Homo sapiens, UniProt P51617); test: KINOMEscan; details: read-out: Percent Control
Procedure: as §1

PAK1 [3] = molecular target: T1, PAK1; test: Z'-LYTE FRET kinase inhibition assay; assay type: biochemical; design: human recombinant PAK1 (kinase domain); purchased Invitrogen PV2830
Procedure: The activity/inhibition of human recombinant PAK1 (kinase domain) or PAK2 (full length) was determined by measuring the phosphorylation of a FRET peptide substrate (Ser/Thr19) labeled with Coumarin and Fluorescein using Z′-LYTE™ assay (Invitrogen). The 10 μL assay mixtures contained 50 mM HEPES (pH 7.5), 0.01% Brij-35, 10 mM MgCl2, 1 mM EGTA, 2 μM FRET peptide substrate, and PAK enzyme (20 pM PAK1; 50 pM PAK2). Incubations were carried out at 22° C. in black polypropylene 384-well plates (Corning Costar). […] Following the 60-minute incubation, the assay mixtures were quenched by the addition of 5 μL of Z′-LYTE™ development reagent, and 1 hour later the emissions of Coumarin (445 nm) and Fluorescein (520 nm) were determined after excitation at 400 nm using an Envision plate reader (Perkin Elmer).
Target sequence in this assay (Q13153 270-521 limits assumed): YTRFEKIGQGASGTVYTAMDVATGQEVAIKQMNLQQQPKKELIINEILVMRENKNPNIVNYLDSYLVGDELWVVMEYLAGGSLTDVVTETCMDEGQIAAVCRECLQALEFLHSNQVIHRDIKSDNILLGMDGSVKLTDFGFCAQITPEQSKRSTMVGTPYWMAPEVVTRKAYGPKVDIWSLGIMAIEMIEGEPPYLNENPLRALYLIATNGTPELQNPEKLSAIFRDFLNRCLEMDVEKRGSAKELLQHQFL

STK35 = STK35 (Homo sapiens, UniProt Q8TDR2); test: KINOMEscan; details: read-out: Percent Control
Procedure: as §1

PAK7 = PAK7 (Homo sapiens, UniProt Q9P286); test: KINOMEscan; details: read-out: Percent Control
Procedure: as §1

PAK6 = PAK6 (Homo sapiens, UniProt Q9NQU5); test: KINOMEscan; details: read-out: Percent Control
Procedure: as §1

SRC = SRC (Homo sapiens, UniProt P12931); test: KINOMEscan; details: read-out: Percent Control
Procedure: as §1

SRMS = SRMS (Homo sapiens, UniProt Q9H3Y6); test: KINOMEscan; details: read-out: Percent Control
Procedure: as §1

CAMK1D = CAMK1D (Homo sapiens, UniProt Q8IU85); test: KINOMEscan; details: read-out: Percent Control
Procedure: as §1

TYRO3 = TYRO3 (Homo sapiens, UniProt Q06418); test: KINOMEscan; details: read-out: Percent Control
Procedure: as §1

HPK1 = HPK1 (Homo sapiens, UniProt Q92918); test: KINOMEscan; details: read-out: Percent Control
Procedure: as §1

NEK9 = NEK9 (Homo sapiens, UniProt Q8TD19); test: KINOMEscan; details: read-out: Percent Control
Procedure: as §1

FLT3(ITD, D835V) = test: KINOMEscan; details: 10 μM
Procedure: as §1

MKNK1 = MKNK1 (Homo sapiens, UniProt Q9BUB5); test: KINOMEscan; details: read-out: Percent Control
Procedure: as §1

PIK3CA(H1047Y) = PIK3CA(H1047Y) (Homo sapiens, UniProt P42336, H1047Y); test: KINOMEscan; details: read-out: Percent Control
Procedure: as §1

PDGFRA = PDGFRA (Homo sapiens, UniProt P16234); test: KINOMEscan; details: read-out: Percent Control
Procedure: as §1

NEK9, sequence (Q8TD19 whole entry): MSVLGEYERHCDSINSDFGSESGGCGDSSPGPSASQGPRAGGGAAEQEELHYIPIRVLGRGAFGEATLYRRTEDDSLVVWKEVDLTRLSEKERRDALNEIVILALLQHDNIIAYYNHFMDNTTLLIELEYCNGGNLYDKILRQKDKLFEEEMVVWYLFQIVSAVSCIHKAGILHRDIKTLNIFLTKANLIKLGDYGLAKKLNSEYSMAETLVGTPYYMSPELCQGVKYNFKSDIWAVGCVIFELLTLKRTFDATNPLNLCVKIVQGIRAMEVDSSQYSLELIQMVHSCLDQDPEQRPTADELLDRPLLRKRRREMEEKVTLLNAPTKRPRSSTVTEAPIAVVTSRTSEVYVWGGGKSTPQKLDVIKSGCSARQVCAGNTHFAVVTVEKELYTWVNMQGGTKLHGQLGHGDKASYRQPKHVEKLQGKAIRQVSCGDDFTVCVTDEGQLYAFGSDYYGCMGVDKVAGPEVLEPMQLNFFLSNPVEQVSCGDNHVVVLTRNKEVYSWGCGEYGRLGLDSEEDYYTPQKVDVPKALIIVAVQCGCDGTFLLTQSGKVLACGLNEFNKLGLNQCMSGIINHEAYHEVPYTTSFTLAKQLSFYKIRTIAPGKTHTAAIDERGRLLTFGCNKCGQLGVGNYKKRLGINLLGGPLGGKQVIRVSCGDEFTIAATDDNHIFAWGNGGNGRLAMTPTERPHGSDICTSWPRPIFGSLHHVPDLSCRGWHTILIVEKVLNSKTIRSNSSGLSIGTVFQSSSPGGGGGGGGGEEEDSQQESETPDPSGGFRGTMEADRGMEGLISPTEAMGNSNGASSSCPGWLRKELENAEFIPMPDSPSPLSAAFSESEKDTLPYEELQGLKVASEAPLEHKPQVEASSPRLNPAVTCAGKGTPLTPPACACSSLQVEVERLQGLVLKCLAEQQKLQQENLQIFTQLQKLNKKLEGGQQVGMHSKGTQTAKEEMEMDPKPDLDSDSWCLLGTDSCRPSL
TGFBR1, sequence (P36897 34-503): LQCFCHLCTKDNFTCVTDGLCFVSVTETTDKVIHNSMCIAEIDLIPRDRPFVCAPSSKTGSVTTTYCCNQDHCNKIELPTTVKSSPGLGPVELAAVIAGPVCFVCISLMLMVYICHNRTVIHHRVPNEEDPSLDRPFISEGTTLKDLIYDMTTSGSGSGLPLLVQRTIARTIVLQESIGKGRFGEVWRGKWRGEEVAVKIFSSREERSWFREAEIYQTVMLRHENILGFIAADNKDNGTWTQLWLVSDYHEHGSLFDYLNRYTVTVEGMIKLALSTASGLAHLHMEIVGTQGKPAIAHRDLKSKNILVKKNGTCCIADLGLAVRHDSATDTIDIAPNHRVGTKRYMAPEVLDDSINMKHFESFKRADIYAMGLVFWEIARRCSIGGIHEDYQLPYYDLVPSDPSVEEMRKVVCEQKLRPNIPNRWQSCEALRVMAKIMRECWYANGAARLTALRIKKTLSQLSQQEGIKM
CAMK1D, sequence (Q8IU85 whole entry): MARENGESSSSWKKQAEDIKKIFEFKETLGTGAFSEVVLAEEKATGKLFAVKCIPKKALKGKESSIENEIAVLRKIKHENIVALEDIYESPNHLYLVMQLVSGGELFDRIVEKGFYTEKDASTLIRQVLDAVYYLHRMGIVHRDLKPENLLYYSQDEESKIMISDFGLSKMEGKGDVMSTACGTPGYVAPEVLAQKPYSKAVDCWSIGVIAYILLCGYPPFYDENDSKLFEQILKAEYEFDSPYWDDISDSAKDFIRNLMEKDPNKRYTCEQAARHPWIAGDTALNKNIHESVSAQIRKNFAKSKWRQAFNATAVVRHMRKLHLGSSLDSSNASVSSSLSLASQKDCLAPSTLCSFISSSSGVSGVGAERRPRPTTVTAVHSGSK
KIT(V559D, T670I), sequence (P10721 26-976 V559D/T670I): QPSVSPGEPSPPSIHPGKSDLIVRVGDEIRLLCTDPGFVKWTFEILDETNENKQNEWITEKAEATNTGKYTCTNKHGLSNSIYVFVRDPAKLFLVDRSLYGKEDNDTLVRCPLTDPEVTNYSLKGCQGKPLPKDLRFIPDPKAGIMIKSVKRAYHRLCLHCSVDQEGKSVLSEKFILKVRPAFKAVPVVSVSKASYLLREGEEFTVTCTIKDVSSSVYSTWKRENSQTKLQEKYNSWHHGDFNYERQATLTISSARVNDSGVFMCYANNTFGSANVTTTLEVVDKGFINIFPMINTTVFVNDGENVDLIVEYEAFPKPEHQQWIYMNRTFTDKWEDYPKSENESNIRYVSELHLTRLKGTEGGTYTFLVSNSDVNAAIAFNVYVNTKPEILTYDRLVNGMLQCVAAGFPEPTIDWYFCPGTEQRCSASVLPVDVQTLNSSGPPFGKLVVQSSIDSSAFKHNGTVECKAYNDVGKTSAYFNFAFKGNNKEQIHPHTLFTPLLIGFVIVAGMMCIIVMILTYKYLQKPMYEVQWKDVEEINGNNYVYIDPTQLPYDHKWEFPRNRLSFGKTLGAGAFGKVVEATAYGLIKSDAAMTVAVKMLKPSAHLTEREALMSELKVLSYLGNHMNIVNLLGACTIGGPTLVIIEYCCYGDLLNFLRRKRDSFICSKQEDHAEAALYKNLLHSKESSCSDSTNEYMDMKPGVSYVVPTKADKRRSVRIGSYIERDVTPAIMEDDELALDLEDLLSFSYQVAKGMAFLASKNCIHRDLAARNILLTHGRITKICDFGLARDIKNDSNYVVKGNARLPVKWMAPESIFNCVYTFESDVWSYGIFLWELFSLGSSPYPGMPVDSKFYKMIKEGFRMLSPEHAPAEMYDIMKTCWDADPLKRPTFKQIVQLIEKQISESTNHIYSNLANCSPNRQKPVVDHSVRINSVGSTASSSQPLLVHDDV
FAK, sequence (Q05397 whole entry): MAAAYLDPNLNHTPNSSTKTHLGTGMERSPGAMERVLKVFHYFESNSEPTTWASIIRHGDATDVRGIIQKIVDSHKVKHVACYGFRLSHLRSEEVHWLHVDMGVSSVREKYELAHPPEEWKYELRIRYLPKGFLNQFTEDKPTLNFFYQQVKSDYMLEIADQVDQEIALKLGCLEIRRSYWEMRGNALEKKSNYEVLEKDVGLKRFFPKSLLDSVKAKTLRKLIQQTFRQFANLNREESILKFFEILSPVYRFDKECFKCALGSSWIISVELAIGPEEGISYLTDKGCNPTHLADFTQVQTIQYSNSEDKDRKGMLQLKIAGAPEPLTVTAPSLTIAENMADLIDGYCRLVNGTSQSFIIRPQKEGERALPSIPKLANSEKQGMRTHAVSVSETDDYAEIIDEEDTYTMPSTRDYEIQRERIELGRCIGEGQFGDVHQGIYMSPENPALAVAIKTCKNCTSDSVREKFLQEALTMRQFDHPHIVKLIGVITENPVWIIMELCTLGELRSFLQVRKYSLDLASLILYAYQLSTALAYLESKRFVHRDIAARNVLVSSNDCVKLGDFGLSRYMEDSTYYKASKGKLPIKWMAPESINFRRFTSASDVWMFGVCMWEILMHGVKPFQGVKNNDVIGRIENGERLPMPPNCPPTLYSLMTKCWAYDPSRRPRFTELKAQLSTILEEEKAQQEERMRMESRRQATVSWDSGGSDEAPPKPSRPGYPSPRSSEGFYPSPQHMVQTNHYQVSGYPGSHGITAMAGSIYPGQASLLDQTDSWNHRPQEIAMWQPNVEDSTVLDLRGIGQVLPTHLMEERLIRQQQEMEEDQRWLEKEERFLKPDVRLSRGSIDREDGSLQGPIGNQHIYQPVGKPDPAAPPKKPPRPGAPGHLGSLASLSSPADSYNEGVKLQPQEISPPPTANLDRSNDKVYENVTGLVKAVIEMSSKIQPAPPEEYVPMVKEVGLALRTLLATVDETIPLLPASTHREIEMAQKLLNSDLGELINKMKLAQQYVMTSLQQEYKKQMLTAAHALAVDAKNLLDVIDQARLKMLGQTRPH

O=C1CCC(N2C(=O)c3cccc(NCCCCCCCCNC(=O)N4CC[C@H](NC5=Nc6cc(F)ccc6N(CC(F)F)c6ccc(Cl)cc65)C4)c3C2=O)C(=O)N1 (stereo partly drawn) [BJG-05-039, (3S)-3-((2-Chloro-5-(2,2-difluoroethyl)-8-fluoro-5H-dibenzo[b,e][1,4]diazepin-11-yl)amino)-N-(8-((2-(2,6-dioxopiperidin-3-yl)-1,3-dioxoisoindolin-4-yl)amino)octyl)pyrrolidine-1-carboxamide]
remaining binding at 10 µM (NDR2): 45%
remaining binding at 10 µM (KIT(V559D, T670I)): 85%
remaining binding at 10 µM (MRCKB): 67%
remaining binding at 10 µM (TGFBR1): 100%
remaining binding at 10 µM [1]: 100%
remaining binding at 10 µM (INSR): 93%
remaining binding at 10 µM (FAK): 65%
Reduction in PAK1 levels by immunoblot (PAK1 [2]; FIG. 2A): ~50%
PAK1 degradation (PAK1 [2]; MCF7 and OVCAR3 cells): induced degradation of PAK1
Concentration of maximal PAK1 degradation (PAK1 [2]; MCF7 and OVCAR3 cells, 12 hour treatment): 10 nM
Time to partial degradation of PAK1 (PAK1 [2]; MCF7 cells, 250 nM, progressive loss out to 24 hours): ≤ 4 h
PAK1 degradation on co-treatment (PAK1 [2]; co-treatment with bortezomib or MLN4924): prevented PAK1 destabilization
PAK1 degradation at high concentration (hook effect) (PAK1 [2]; concentrations of 1 μM and greater): diminished PAK1 degradation was observed
remaining binding at 10 µM (CLK4): 100%
remaining binding at 10 µM (CDK4-cyclinD3): 100%
remaining binding at 10 µM (ALK(L1196M)): 100%
remaining binding at 10 µM (LYN): 79%
remaining binding at 10 µM (IRAK1): 100%
IC50 (PAK1 [3]): 233 nM
Increase of selectivity over PAK2 relative to NVS-PAK-1 (PAK1 [3]; from Table 1): more than ten-fold
PAK1 inhibitory activity and selectivity of conjugate (PAK1 [3]; vs PAK2 and PAK4): retained PAK1 inhibitory activity and selectivity
remaining binding at 10 µM (STK35): 83%
remaining binding at 10 µM (PAK7): 42%
remaining binding at 10 µM (PAK6): 99%
remaining binding at 10 µM (SRC): 88%
remaining binding at 10 µM (SRMS): 97%
remaining binding at 10 µM (CAMK1D): 68%
remaining binding at 10 µM (TYRO3): 72%
remaining binding at 10 µM (HPK1): 92%
remaining binding at 10 µM (NEK9): 82%
Percent Control (FLT3(ITD, D835V)): 95
remaining binding at 10 µM (MKNK1): 100%
remaining binding at 10 µM (PIK3CA(H1047Y)): 94%
remaining binding at 10 µM (PDGFRA): 100%
